This note sets out measurements from PMC2866477, “Anticancer Effect and Structure-Activity Analysis of Marine Products Isolated from Metabolites of Mangrove Fungi in the South China Sea” (Marine Drugs, 2010).

SMILES strings stand for the structures. Where two headings read alike, the source gives them in different places.

One test deals with KB cells. The test can be described thus: MTT cytotoxicity assay, KB cells. Particulars: Homo sapiens, 72 h treatment, KB oral epidermoid carcinoma cells. The class given is cell-based. As to the method: (§1) The cell lines were cultured in DMEM or RPMI 1640 containing 10% fetal bovine serum at 37 °C in the presence of 5% CO2. The cell lines were the oral epidermoid carcinoma cell lines KB and its vincristine-selected ABCB1-overexpressing KBv200 [10]; the breast carcinoma cell lines MCF-7 and its doxorubicin-selected ABCB1-overexpressing MCF-7/adr; the lung carcinoma cell line A549 and normal liver cell line LO2.
(§2) The MTT assay was used to evaluate the cytotoxicity of a number of compounds previously isolated from mangrove-derived fungi as described. Briefly, 3–4 × 10^3 cells were incubated in 96-well plates and allowed to attach overnight before compounds at full range concentrations were added. The concentrations were chosen so that the highest concentration killed most of the cells and the lowest killed none of the cells. After 72 h treatment, 0.5 mg/ml MTT was added to each well for an additional 4 h. Subsequently, the supernatant was removed, and the purple MTT-formazan crystals were dissolved by DMSO. Finally, absorbance was recorded at 540 nm with 655 nm as a reference filter using a Model 550 Microplate Reader (Bio-Rad, USA). Experiments were performed at least three times. The standard chemotherapeutic agent doxorubicin was used as a positive control in MTT assay and normal liver cell line LO2 was used to show whether cytotoxic activity was tumor-specific. The concentrations required to inhibit growth by 50% (IC50) were calculated from survival curves using the Bliss method.
(In general: Tetrazolium dyes change colour on reduction, which living cells bring about.)

A further test relates to KBv200 cells. The test can be described thus: MTT cytotoxicity assay, KBv200 cells. Particulars: Homo sapiens, 72 h treatment, vincristine-selected ABCB1-overexpressing KBv200 cells. It is filed as cell-based. As to the method:
as §1, §2

The next test relates to MCF-7 cells. Put plainly: MTT cytotoxicity assay, MCF-7 cells. Particulars: Homo sapiens, MCF7, 72 h treatment, MCF-7 breast carcinoma cells. The class given is cell-based. As for the experimental part: as §1, §2
The next test has as its system MCF-7/adr cells. Put plainly: MTT cytotoxicity assay, MCF-7/adr cells. The class given is cell-based. Particulars: Homo sapiens, NCI/ADR-RES, 72 h treatment, doxorubicin-selected ABCB1-overexpressing MCF-7/adr cells. As for the experimental part: as §1, §2
A further test relates to A549 cells. The test can be described thus: MTT cytotoxicity assay, A549 cells. Particulars: Homo sapiens, 72 h treatment, A549 lung carcinoma cells. The class given is cell-based. As to the method:
as §1, §2

Another test concerns normal liver LO2 cells. Put plainly: MTT cytotoxicity assay, normal liver LO2 cells. The class given is cell-based. Particulars: Homo sapiens, L02, 72 h treatment, normal liver LO2 cells. As to the method: as §1, §2
Test [1] deals with KB, KBv200, MCF-7, MCF-7/adr, and A549 cells. The test can be described thus: MTT anticancer screen, cancer cell panel. It is filed as cell-based, human. Particulars: for IC50: Homo sapiens, MTT; for IC50 values in MDR cells compared with parental sensitive cells: KBv200, MCF-7/adr versus KB, MCF-7. As to the method:
as §1, §2

[2] abbreviates: KB, KBv200, MCF-7, MCF-7/adr, and A549 cells, read-out: IC50 values (potent cytotoxic activity).
Where [3] appears, read: cancer cells, cell lines not given, read-out: IC50 (cytotoxic activity).

The IC50 is the point on the concentration scale where inhibition reaches its midpoint. As to `O=c1c2c(O)ccc(O)c2oc2c3c(cc(O)c12)OC1OCCC31` (stereo not shown) [Compound 7], the IC50 in the test with KB cells stood at 0.03 ± 0.001 µM; in the test with KBv200 cells it was 9.08 ± 0.65 µM; in the test on MCF-7 cells it was 0.17 ± 0.01 µM; in the test on MCF-7/adr cells, 31.6 ± 1.83 µM; in the test on A549 cells it was 16.5 ± 0.88 µM; with normal liver LO2 cells, 47.4 ± 2.04 µM. Further, the IC50 in test [1] (setting [2]) is below 50 µM. The “IC50 values in MDR cells compared with parental sensitive cells” value in test [1] is “much higher IC50 values”.
On to `CC1OC(O[C@H]2C(=O)c3c(O)cccc3OC2c2ccc(O)cc2)C(O)C(O)C1O` (stereo partly shown) [Compound 80], for which the IC50 in the test with KB cells, in the test on KBv200 cells, with MCF-7 cells, with MCF-7/adr cells, with A549 cells and with normal liver LO2 cells was above 50 µM each time. The IC50 in test [1] (setting [3]) is above 50 µM.
On to `COc1cc(O)c2c(c1O)C(O)C1CC(C)(O)C(O)CC1C2=O` (stereo not shown) [Compound 21], for which the IC50 with KB cells, with KBv200 cells, in the test with MCF-7 cells, in the test on MCF-7/adr cells, in the test on A549 cells and in the test on normal liver LO2 cells was above 50 µM throughout.
In the case of `COc1cc(O)c2c(c1O)C(O)C1CC3(C)OC3CC1C2=O` (stereo not shown) [Compound 22], the IC50 in the test on KB cells, in the test with KBv200 cells, in the test with MCF-7 cells, in the test with MCF-7/adr cells, in the test on A549 cells and in the test with normal liver LO2 cells was above 50 µM throughout.
Take `COc1cc(O)c2c(c1O)C(=O)C1CC(C)(O)C(O)C(O)C1C2O` (stereo not shown) [Compound 24]: the IC50 in the test on KB cells, in the test on KBv200 cells, in the test on MCF-7 cells, in the test on MCF-7/adr cells, with A549 cells and with normal liver LO2 cells was above 50 µM each time.
In the case of `Cc1c(CCl)cc([N+](=O)[O-])cc1CCl` [Compound 3], the IC50 in the test with KB cells, in the test on KBv200 cells, in the test on MCF-7 cells, in the test with MCF-7/adr cells, in the test on A549 cells and in the test on normal liver LO2 cells was above 50 µM throughout.
Consider `COC(=O)/C=C/C=C/C=C/C=C(C)/C=C/C=C(\C)C(=O)O` [Compound 85], for which the IC50 with KB cells, with KBv200 cells, in the test with MCF-7 cells, in the test with MCF-7/adr cells, in the test with A549 cells and with normal liver LO2 cells was above 50 µM in each case.
Regarding `COc1cc(O)c2c(c1O)C(O)C1CC(C)(O)C(O)C(O)C1C2=O` (stereo not shown) [Compound 20], the IC50 in the test on KB cells, in the test with KBv200 cells, in the test with MCF-7 cells, in the test on MCF-7/adr cells, with A549 cells and in the test on normal liver LO2 cells was above 50 µM each time.
`C=C/C=C/COc1c(-c2ccc3c(c2OC/C=C/C=C)C(=O)C2=C(O)CC(C)C(O)C2(C(=O)OC)O3)ccc2c1C(=O)C1=C(O)CC(C)C(O)C1(C(=O)OC)O2` (stereo not shown) [Compound 10]: the IC50 with KB cells, in the test on KBv200 cells, in the test on MCF-7 cells, with MCF-7/adr cells, in the test with A549 cells and in the test on normal liver LO2 cells was above 50 µM each time.
In the case of `Cc1cc(OCc2ccccc2)c2c(c1)C(=O)c1cccc(O)c1C2=O` [Compound 15], the IC50 with KB cells, in the test on KBv200 cells, in the test on MCF-7 cells, in the test on MCF-7/adr cells, in the test with A549 cells and with normal liver LO2 cells was above 50 µM each time.
For `COc1cc(OC)c2c(c1)C(=O)c1cc3c(c(O)c1C2=O)C1CCOC1O3` (stereo not shown) [Compound 17], the IC50 in the test with KB cells, in the test on KBv200 cells, in the test with MCF-7 cells, with MCF-7/adr cells, in the test on A549 cells and in the test with normal liver LO2 cells was above 50 µM each time.
As to `C/C=C/C(=O)c1cc(O)c(O)cc1O` [Compound 6], the half-maximal inhibitory concentration (IC50) in the test on KB cells, with KBv200 cells, with MCF-7 cells, in the test on MCF-7/adr cells, in the test with A549 cells and in the test on normal liver LO2 cells was above 50 µM each time.
Turning to `Cc1cccc(O)c1C(=O)O` [Compound 5], the IC50 in the test on KB cells, in the test on KBv200 cells, in the test with MCF-7 cells, with MCF-7/adr cells, with A549 cells and with normal liver LO2 cells was above 50 µM throughout.
As to `COc1cc(O)c2c(c1O)C(=O)C1CC(C)(O)C(O)CC1C2O` (stereo not shown) [Compound 23], the IC50 in the test with KB cells, in the test with KBv200 cells, in the test on MCF-7 cells, in the test with MCF-7/adr cells, with A549 cells and in the test on normal liver LO2 cells was above 50 µM each time.
For the compound `Cc1ccc2c(c1)C(=O)c1ccc(-c3ccc4c(c3)C(=O)c3cc(C)cc(O)c3C4=O)c(O)c1C2=O` [Compound 19], the IC50 with KB cells, in the test on KBv200 cells, in the test on MCF-7 cells, in the test on MCF-7/adr cells, with A549 cells and in the test with normal liver LO2 cells was above 50 µM in each case.
Regarding `CC(=O)/C=C/C=C/C=C/C(=O)CC(=O)O` [Compound 84], the IC50 in the test on KB cells, in the test on KBv200 cells, with MCF-7 cells, with MCF-7/adr cells, with A549 cells and in the test with normal liver LO2 cells was above 50 µM each time.
On to `CCCCC/C=C\CC(O)/C=C/C=C\C/C=C\CCCC(=O)OC` (stereo not shown) [Compound 82], for which the IC50 in the test on KB cells, in the test with KBv200 cells, with MCF-7 cells, in the test with MCF-7/adr cells, with A549 cells and in the test on normal liver LO2 cells was above 50 µM each time.
For the compound `O=c1c2ccccc2oc2c3c(cc(O)c12)OC1OCCC31` (stereo not shown) [Compound 8], the IC50 is 0.71 ± 0.03 µM in the test with KB cells; 17.2 ± 0.96 µM with KBv200 cells; 2.53 ± 0.14 µM with MCF-7 cells; 9.37 ± 0.42 µM in the test with MCF-7/adr cells; above 50 µM with A549 cells; above 50 µM with normal liver LO2 cells. In test [1] (setting [2]), the IC50 is below 50 µM.
On to `COc1c2c(cc3oc4cccc(O)c4c(=O)c13)C1C=COC1O2` (stereo not shown) [Compound 9], for which the IC50 in the test with KB cells was 0.94 ± 0.01 µM; in the test on KBv200 cells, 48 ± 3.41 µM; in the test on MCF-7 cells, 1.43 ± 0.09 µM; in the test with MCF-7/adr cells, 31.6 ± 1.36 µM; in the test on A549 cells, above 50 µM; in the test on normal liver LO2 cells, above 50 µM. Also, the IC50 in test [1] (setting [2]) is below 50 µM. Further, in test [1], the “IC50 values in MDR cells compared with parental sensitive cells” value is reported as “much higher IC50 values”.
Consider `O=C1c2cccc(OCc3ccccc3)c2C(=O)c2c(OCc3ccccc3)cccc21` [Compound 16], for which the IC50 with KB cells, in the test with KBv200 cells, with MCF-7 cells, in the test on MCF-7/adr cells, in the test on A549 cells and with normal liver LO2 cells was above 50 µM each time.
With `CCOC(=O)COc1cccc2c1C(=O)c1c(OCC(=O)OCC)cc(C)cc1C2=O` [Compound 12], the IC50 with KB cells, with KBv200 cells, with MCF-7 cells, in the test on MCF-7/adr cells, in the test with A549 cells and with normal liver LO2 cells was above 50 µM throughout.
Turning to `COc1cc(O)c2c(c1O)C(=O)C1CC3(C)OC3CC1C2O` (stereo not shown) [Compound 25], the IC50 in the test with KB cells, in the test with KBv200 cells, with MCF-7 cells, in the test with MCF-7/adr cells, with A549 cells and in the test on normal liver LO2 cells was above 50 µM each time.
For the compound `Cc1ccc([N+](=O)[O-])cc1CO` [Compound 2], the IC50 in the test with KB cells, in the test with KBv200 cells, with MCF-7 cells, in the test on MCF-7/adr cells, in the test on A549 cells and with normal liver LO2 cells was above 50 µM each time.
On to `CC1OC(O[C@@H]2C(=O)c3c(O)cccc3OC2c2ccc(O)cc2)C(O)C(O)C1O` (stereo partly shown) [Compound 79], for which the IC50 in the test with KB cells, with KBv200 cells, in the test on MCF-7 cells, in the test on MCF-7/adr cells, in the test with A549 cells and in the test with normal liver LO2 cells was above 50 µM each time. The half-inhibitory concentration (IC50) in test [1] (setting [3]) was above 50 µM.
